Measured values as given in patent publication US20260174875A1 (Novo Nordisk A/S, priority 2023, published 2026).
Read-outs that look alike come from different tables or passages of the source. Marks after values point to notes of the source that are not given here. Numbered stars: 1 amine (or outer) side, 2 acyl side, 3 side chain; on linkers, the order of the positions; unused ones are H or OH. Square brackets hold non-standard residues; d marks the D form. Side chains are listed from the residue outwards. * marks the point of attachment. C20 diacid = O=C(O)CCCCCCCCCCCCCCCCCCC(=O)*; C18 diacid = O=C(O)CCCCCCCCCCCCCCCCC(=O)*; C16 diacid = O=C(O)CCCCCCCCCCCCCCC(=O)*; γGlu = O=C(O)[C@H](CCC(=O)[*:2])N[*:1]; AEEA = NCCOCCOCC(=O)O; Aib = CC(C)(N)C(=O)O

How the values were obtained:
[1] = molecular target: T1, human amylin receptor (hAMYR3) (Homo sapiens, UniProt O60896+P30988); experiment: Amylin receptor assay, method A (CRE-luciferase reporter, BHK cells); format: cell-based
T1 construct: host or cells: BHK cells (Hollex-1 line expressing hCTR(a) and CRE-Luc), further transfected with human RAMP3
T1 sequence (P30988 25-474): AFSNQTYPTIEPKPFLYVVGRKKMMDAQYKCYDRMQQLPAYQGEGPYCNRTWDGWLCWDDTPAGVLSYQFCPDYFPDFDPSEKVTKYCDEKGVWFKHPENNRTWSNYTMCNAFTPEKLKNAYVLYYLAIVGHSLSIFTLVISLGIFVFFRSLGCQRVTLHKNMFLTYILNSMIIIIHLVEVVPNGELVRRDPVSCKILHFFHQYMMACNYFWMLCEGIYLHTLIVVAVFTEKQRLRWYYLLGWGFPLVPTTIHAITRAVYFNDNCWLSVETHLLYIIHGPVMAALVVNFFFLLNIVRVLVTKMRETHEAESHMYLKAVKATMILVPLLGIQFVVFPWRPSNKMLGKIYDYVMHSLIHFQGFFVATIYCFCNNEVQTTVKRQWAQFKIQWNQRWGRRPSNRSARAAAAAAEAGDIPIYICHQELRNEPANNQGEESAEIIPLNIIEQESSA
T1 sequence (O60896 24-148): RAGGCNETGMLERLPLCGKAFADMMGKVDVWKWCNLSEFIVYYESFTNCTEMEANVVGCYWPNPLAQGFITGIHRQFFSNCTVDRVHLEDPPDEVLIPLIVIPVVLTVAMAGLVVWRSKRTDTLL

[2] = test system: Male Sprague Dawley (SD) rats; experiment: Efficacy testing on appetite: acute food intake in ad libitum fed normal weight rats; format: in vivo, rat; settings: for Food intake (relative to vehicle) Day 1: day 1 [0-24 hours]; for Food intake (relative to vehicle) Day 2: day 2 [24-48 hours]; for Food intake (relative to vehicle) Day 3: day 3 [48-72 hours]
From the text: Male Sprague Dawley (SD) rats from Taconic, Denmark were used for the acute food intake experiments, wherein the principles of laboratory animal care were followed.
The rats arrived at least 10-14 days before the start of the experiment to allow acclimatization to experimental settings. During this period, the animals were handled (fixation by restrain in neck skin) at least 2 times. Immediately upon arrival, rats were changed to a reversed light cycle (dark from 11 am-11 pm) and were transferred to an automated food intake measuring system (HM2 system, MBRose; Faaborg, Denmark). […] To enable recording of individual food intake, rats were ID chipped. Three rats were housed in each cage. During the acclimatization period, in which the rats get used to the new light cycle and diet (LF 10% (D12450B), from Research Diets Inc.), the animals had free access to food and water. Since rats are normally active and consume most of their daily calories during the dark period, rats were dosed in the morning right before lights were turned off. Such a set-up results in the lowest data variation and highest test sensitivity. […] In each cage there were animals from three different treatment groups (to eliminate potential cage effects (e.g. cage malfunction) on primary readout: food intake). The rats were dosed once subcutaneously (s.c.) with the peptide of interest according to body weight (10 or 30 nmol/kg) in vehicle (0.5 ml/kg) using a NovoPen® (Novo Nordisk, Bagsvæed, Denmark).
The compounds of the invention were formulated (20 or 60 nmol/ml) in the following vehicle: 8 mM phosphate; 250 mM glycerol; 0.007% polysorbate 20, pH 7.4.
After dosing, the rats were returned to their home cages, where they continued to have ad libitum access to chow and water. The food consumption was recorded individually and continuously by the HM2 system from 0-72 h after test compound administration. Data obtained by the HM-2 system were stored in a HMBase SQL database (Firebird® relational database management system) and were processed by HM2Lab software (MBRose; Faaborg, Denmark) installed in an embedded computer. The feeding system is a highly sensitive system with a load resolution of 0.001 g.

[3] = hAMYR3 Potency, 1% HSA, EC50, method A, in the presence of 1% HSA
[4] = method A, absence of HSA, read-out: hAMYR3 Potency, no HSA, EC50

Substance	EC50 [1, 3]	EC50 [1, 4]	Food intake (relative to vehicle) Day 1 ([2]; single dose 10 nmol/kg)	Food intake (relative to vehicle) Day 2 ([2]; single dose 10 nmol/kg)	Food intake (relative to vehicle) Day 3 ([2]; single dose 10 nmol/kg)	Food intake (relative to vehicle) Day 1 ([2]; single dose 30 nmol/kg)	Food intake (relative to vehicle) Day 2 ([2]; single dose 30 nmol/kg)	Food intake (relative to vehicle) Day 3 ([2]; single dose 30 nmol/kg)	EC50 ([1]; hAMYR3 Potency, no HSA, EC50, method A, absence of HSA)
H[Aib]HGTFTSDYSILLEEQAAREFIEWLLAGGPSSGEASHLSTAALGRLSAK([AEEA-AEEA-γGlu-C18 diacid])LHRLATLPRTETGSGSP-NH2 [Compound 87]	0.0365 nM	0.00499 nM	−91%	−86%	−24%	–	–	–	–
H[Aib]HGTFTSDYSILLEEQAAREFIEWLLAGGPSK([AEEA-AEEA-γGlu-C18 diacid])GEASQLSTAALGRLSAELHTLATLPRTETGSGSP-NH2 [Compound 63]	0.0703 nM	0.00286 nM	−79%	−80%	−17%	–	–	–	–
Y[Aib]EGTFTSDYSILLEEQAAREFIEWLLAGGPSK([AEEA-AEEA-γGlu-C18 diacid])GEASHLSTAQTARLSAELHELATLPRTETGSGSP-NH2 [Compound 35]	–	0.00421 nM	–	–	–	−42%	−18%	−16%	–
H[Aib]HGTFTSDYSILLEEQAAREFIEWLLAGGPSRGEASHLSTAQTQRLSAELHK([AEEA-AEEA-γGlu-C18 diacid])LATLPRTETGSGSP-NH2 [Compound 69]	0.0789 nM	0.00343 nM	−81%	−68%	−6%	–	–	–	–
Y[Aib]EGTFTSDYSILLEEQAAREFIEWLLAGGPSSGEASHLSTAQTQRLSAK([AEEA-AEEA-γGlu-C18 diacid])LHRLATLPRTETGSGSP-NH2 [Compound 79]	0.0534 nM	0.00353 nM	−70%	−54%	−5%	–	–	–	–
Y[Aib]EGTFTSDYSILLEEQAAREFIEWLLAGGPSSGALQAPGQAPLASHLSTAQTQRLSAELHK([AEEA-AEEA-γGlu-C20 diacid])LATLPRTETGSGSP-NH2 [Compound 99]	0.129 nM	0.00282 nM	−69%	−84%	−46%	–	–	–	–
H[Aib]HGTFTSDYSILLEEQAAREFIEWLLAGGPSK([AEEA-AEEA-γGlu-C16 diacid])GEASQLSTAALGRLSAELHRLADLPRTETGSGSP-NH2 [Compound 62]	0.0288 nM	–	−74%	−42%	−13%	–	–	–	0.00335 nM
Y[Aib]EGTFTSDYSILLEEQAAREFIEWLLAGGPSSGAGQAPGQAPGASHLSTAQTQRLSAELHK([AEEA-AEEA-γGlu-C20 diacid])LATLPRTETGSGSP-NH2 [Compound 115]	–	–	−44.5%	−76.5%	−38%	–	–	–	–
Y[Aib]EGTFTSDYSILLEEQAAREFIEWLLAGGPSSGAGQAPGQAPGASHLSTAQTQRLSAK([AEEA-AEEA-γGlu-C18 diacid])LHRLATLPRTETGSGSP-NH2 [compound 55]	0.034 nM	0.00222 nM	–	–	–	–	–	–	–
Y[Aib]EGTFTSDYSILLEEQAAREFIEWLLAGGPSSGAGQAPGQAPLASHLSTAQTQRLSAELHK([AEEA-AEEA-γGlu-C18 diacid])LATLPRTETGSGSP-NH2 [compound 58]	0.134 nM	0.00291 nM	–	–	–	–	–	–	–
Y[Aib]EGTFTSDYSILLEEQAAREFIEWLLAGGPSK([AEEA-AEEA-γGlu-C16 diacid])GAPPPSGGGEASELSTAALGRLSAELHELATLPRTETGSGSP-NH2 [compound 10]	0.175 nM	0.0068 nM	−20* %	−4%	−4%	–	–	–	–
Y[Aib]EGTFTSDYSILLEEQAAREFIEWLLAGGPSSGAPPPSGGGEASHLSTAQTQRLSAK([AEEA-AEEA-γGlu-C18 diacid])LHRLATLPRTETGSGSP-NH2 [Compound 109]	0.032 nM	0.00365 nM	−85%	−34%	−28%	–	–	–	–
H[Aib]HGTFTSDYSILLEEQAAREFIEWLLAGGPSK([AEEA-AEEA-γGlu-C16 diacid])GAPPPSGGGEASELSTAALGRLSAELHELATLPRTETGSGSP-NH2 [Compound 12]	0.055 nM	0.00623 nM	−70%	−39%	−8%	–	–	–	–
Y[Aib]EGTFTSDYSILLEEQAAREFIEWLLAGGPSSGAGQAPGASHLSTAQTQRLSAELHK([AEEA-AEEA-γGlu-C18 diacid])LATLPRTETGSGSP-NH2 [Compound 97]	0.132 nM	0.00281 nM	−65%	−82%	−42%	–	–	–	–
Y[Aib]EGTFTSDYSILLEEQAAREFIEWLLAGGPSK([AEEA-AEEA-γGlu-C16 diacid])GEASELSTAALGRLSAELHELATLPRTETGSGSP-NH2 [Compound 11]	0.211 nM	0.0128 nM	–	–	–	−46%	−45%	−27%	–
H[Aib]HGTFTSDYSILLEEQAAREFIEWLLAGGPSK([AEEA-AEEA-γGlu-C18 diacid])GEASHLSTAQTARLSAELHELATLPRTETGSGSP-NH2 [Compound 36]	0.137 nM	0.00384 nM	−44%	−45%	−3%	–	–	–	–
Y[Aib]EGTFTSDYSILLEEQAAREFIEWLLAGGPSRGEASHLSTAQTQRLSAELHK([AEEA-AEEA-γGlu-C18 diacid])LATLPRTETGSGSP-NH2 [compound 68]	0.23 nM	0.00257 nM	–	–	–	–	–	–	–
Y[Aib]EGTFTSDYSILLEEQAAREFIEWLLAGGPSK([AEEA-AEEA-γGlu-C18 diacid])GGQAPGQAPGEASHLSTAQTQRLSAELHELATLPRTETGSGSP-NH2 [Compound 38]	0.172 nM	0.00363 nM	−3%	−19%	1%	–	–	–	–
Y[Aib]EGTFTSDYSILLEEQAAREFIEWLLAGGPSSGAGQAPGQAPGASHLSTAQTQRLSAELHRLK([AEEA-AEEA-γGlu-C18 diacid])TLPRTETGSGSP-NH2 [Compound 56]	0.0449 nM	0.00236 nM	−69%	−77%	−10%	–	–	–	–
Y[Aib]EGTFTSDYSILLEEQAAREFIEWLLAGGPSSGAGQAPGQAPGASHLSTAQTQRLSAELHK([AEEA-AEEA-γGlu-C18 diacid])LATLPRTETGSGSP-NH2 [compound 52]	0.119 nM	0.00285 nM	–	–	–	–	–	–	–
H[Aib]HGTFTSDYSILLEEQAAREFIEWLLAGGPSK([AEEA-AEEA-γGlu-C18 diacid])GEASQLSTAALGRLSAELHQLATLPRTETGSGSP-NH2 [Compound 64]	0.109 nM	0.00191 nM	–	–	–	–	–	–	–
H[Aib]HGTFTSDYSILLEEQAAREFIEWLLAGGPSK([AEEA-AEEA-γGlu-C18 diacid])GAPPPSGGGEASHLSTAQTARLSAELHQLATLPRTETGSGSP-NH2 [compound 101]	0.0955 nM	0.00308 nM	–	–	–	–	–	–	–
